Data on 22 molecules can be found in patent US10875876B2, “Cyclized sulfamoylarylamide derivatives and the use thereof as medicaments for the treatment of hepatitis B” (priority 2015, dated 2020).

One data set deals with HBV. Put plainly: anti HBV activity, HepG2.117 cell line, intracellular HBV DNA by realtime PCR. Format: cell-based. The note with it: HepG2.117 cell line (Tet-off), 3 days of treatment, intracellular HBV DNA quantified by realtime PCR, read-out: HBV-AVE-HepG2.117 EC50. In short, it runs like this:
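Readout was intracellular HBV DNA by real-time PCR (HBV-specific primers and probe) after 3 days of compound exposure. Serial dilutions were tested in duplicate on HepG2.117 cells, a stable inducible HBV producer in which replication is switched on when doxycycline is absent.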

In another data set the test system is HepG2 cells. The data set is described as follows: Cytotoxicity in HepG2 cells, Resazurin assay. As to conditions: read-out: TOX-HepG2-4 d CC50; HepG2 cells incubated for 4 days, viability by Resazurin assay.
The mark [1] stands for this setting: Hepatitis B virus, HepG2.117, 72 h.

Read-outs that look alike come from different tables or passages of the source. Bounds are passed on as bounds.

Usually EC50 stands for the concentration giving half of the maximal effect. Broadly, the CC50 is the concentration giving 50% cytotoxicity. Take `CC(C)C1C=Cc2c(cn(C)c2C(=O)Nc2ccc(F)c(F)c2)S(=O)(=O)N1` (single isomer, unassigned) [Compound 79b, N-(3,4-difluorophenyl)-3-isopropyl-7-methyl-1,1-dioxo-2,3-dihydropyrrolo[3,4-f]thiazepine-6-carboxamide]: the 50% effective concentration (EC50) with HBV stood at 2 nM. In addition, the CC50 in the data set with HepG2 cells was more than 25000 nM.

On to `Cn1cc2c(c1C(=O)Nc1ccc(F)c(F)c1)OCC(C1CCOCC1)NS2(=O)=O` (single isomer, unassigned) [Compound 89b, N-(3,4-difluorophenyl)-7-methyl-1,1-dioxo-3-tetrahydropyran-4-yl-3,4-dihydro-2H-pyrrolo[3,4-b][1,4,5]oxathiazepine-6-carboxamide], for which the EC50 with HBV worked out at 17 nM. Besides, in the data set with HepG2 cells, the CC50 is more than 25000 nM.

Regarding `Cn1cc2c(c1C(=O)Nc1ccc(F)c(F)c1)OC[C@@H](C(O)C1CC1)NS2(=O)=O` (single isomer, unassigned) [Compound 92b], in the data set with HBV, the EC50 was 170 nM. Moreover, the CC50 with HepG2 cells is more than 25000 nM.

As for `CC(C)C(O)C1COc2c(cn(C)c2C(=O)Nc2ccc(F)c(F)c2)S(=O)(=O)N1` (single isomer, unassigned) [Compound 114b, N-(3,4-difluorophenyl)-3-(1-hydroxy-2-methyl-propyl)-7-methyl-1,1-dioxo-3,4-dihydro-2H-pyrrolo[3,4-b][1,4,5]oxathiazepine-6-carboxamide], the concentration giving a half-maximal response (EC50) with HBV was 8 nM. Also, the 50% cytotoxic concentration (CC50) in the data set with HepG2 cells is more than 25000 nM.

Turning to `Cn1cc2c(c1C(=O)Nc1ccc(F)c(C#N)c1)CCC(C(C)(C)O)NS2(=O)=O` (single isomer, unassigned) [Compound 116b, N-(3-cyano-4-fluoro-phenyl)-3-(1-hydroxy-1-methyl-ethyl)-7-methyl-1,1-dioxo-2,3,4,5-tetrahydropyrrolo[3,4-f]thiazepine-6-carboxamide], in the data set with HBV, the EC50 is more than 350 nM. Moreover, the CC50 in the data set with HepG2 cells is more than 25000 nM.

As for `CCC1(C)COc2c(cn(C)c2C(=O)Nc2ccc(F)c(F)c2)S(=O)(=O)N1` (single isomer, unassigned) [Compound 134b, N-(3,4-difluorophenyl)-3-ethyl-3,7-dimethyl-1,1-dioxo-2,4-dihydropyrrolo[3,4-b][1,4,5]oxathiazepine-6-carboxamide], the EC50 in the data set with HBV was found to be 7 nM. In addition, in the data set on HepG2 cells, the CC50 is more than 25000 nM.

As for `CCC(O)[C@@H]1COc2c(cn(C)c2C(=O)Nc2ccc(F)c(C(F)F)c2)S(=O)(=O)N1` (single isomer, unassigned) [Compound 144b, N-[3-(difluoromethyl)-4-fluoro-phenyl]-3-(1-hydroxypropyl)-7-methyl-1,1-dioxo-3,4-dihydro-2H-pyrrolo[3,4-b][1,4,5]oxathiazepine-6-carboxamide], in the data set with HBV, the EC50 worked out at 63 nM. The CC50 in the data set on HepG2 cells was more than 25000 nM.

Regarding `Cn1cc2c(c1C(=O)Nc1ccc(F)c(F)c1)OCC(C)(c1cnccn1)NS2(=O)=O` (single isomer, unassigned) [Compound 145b, N-(3,4-difluorophenyl)-3,7-dimethyl-1,1-dioxo-3-pyrazin-2-yl-2,4-dihydropyrrolo[3,4-b][1,4,5]oxathiazepine-6-carboxamide], in the data set on HBV, the EC50 worked out at 60 nM. Besides, in the data set on HepG2 cells, the CC50 was more than 25000 nM.

In the case of `Cn1cc2c(c1C(=O)Nc1cc(F)c(F)c(F)c1)CCC(C(C)(C)O)NS2(=O)=O` (single isomer, unassigned) [Compound 149b, 3-(1-hydroxy-1-methyl-ethyl)-7-methyl-1,1-dioxo-N-(3,4,5-trifluorophenyl)-2,3,4,5-tetrahydropyrrolo[3,4-f]thiazepine-6-carboxamide], the EC50 with HBV turned out to be 10 nM. Further, the cytotoxic concentration (CC50) with HepG2 cells is more than 25000 nM.

Turning to `Cn1cc2c(c1C(=O)Nc1ccc(F)c(C(F)F)c1)CCC(C(C)(C)O)NS2(=O)=O` (single isomer, unassigned) [Compound 150b, N-[3-(difluoromethyl)-4-fluoro-phenyl]-3-(1-hydroxy-1-methyl-ethyl)-7-methyl-1,1-dioxo-2,3,4,5-tetrahydropyrrolo[3,4-f]thiazepine-6-carboxamide], in the data set with HBV, the half-maximal effective concentration (EC50) came out at 5 nM. Also, the CC50 in the data set on HepG2 cells was more than 25000 nM.

Take `Cn1cc2c(c1C(=O)Nc1ccc(F)c(F)c1)OCC(C)(c1ncccn1)NS2(=O)=O` (single isomer, unassigned) [Compound 153b, N-(3,4-difluorophenyl)-3,7-dimethyl-1,1-dioxo-3-pyrimidin-2-yl-2,4-dihydropyrrolo[3,4-b][1,4,5]oxathiazepine-6-carboxamide]: the concentration giving a half-maximal response (EC50) in the data set on HBV was found to be 60 nM. Besides, the 50% cytotoxic concentration (CC50) in the data set on HepG2 cells is more than 25000 nM.

Turning to `Cn1cc2c(c1C(=O)Nc1ccc(F)c(F)c1)OCC(C)(c1ncco1)NS2(=O)=O` (single isomer, unassigned) [Compound 160b, N-(3,4-difluorophenyl)-3,7-dimethyl-3-oxazol-2-yl-1,1-dioxo-2,4-dihydropyrrolo[3,4-b][1,4,5]oxathiazepine-6-carboxamide], in the data set with HBV, the EC50 was 21 nM. Moreover, the CC50 in the data set on HepG2 cells is more than 25000 nM.

With `CC(NCC(F)(F)F)C1COc2c(cn(C)c2C(=O)Nc2ccc(F)c(C#N)c2)S(=O)(=O)N1` (single isomer, unassigned) [Compound 161b, N-(3-cyano-4-fluoro-phenyl)-7-methyl-1,1-dioxo-3-[1-(2,2,2-trifluoroethylamino)ethyl]-3,4-dihydro-2H-pyrrolo[3,4-b][1,4,5]oxathiazepine-6-carboxamide], the EC50 in the data set on HBV was more than 125 nM. The half-maximal cytotoxic concentration (CC50) with HepG2 cells was more than 25000 nM.

Consider `CC(NCC(F)(F)F)C1COc2c(cn(C)c2C(=O)Nc2ccc(F)c(C#N)c2)S(=O)(=O)N1` (single isomer, unassigned) [Compound 161c, N-(3-cyano-4-fluoro-phenyl)-7-methyl-1,1-dioxo-3-[1-(2,2,2-trifluoroethylamino)ethyl]-3,4-dihydro-2H-pyrrolo[3,4-b][1,4,5]oxathiazepine-6-carboxamide], for which, in the data set with HBV, the EC50 is 11 nM. In the data set on HepG2 cells, the CC50 was more than 25000 nM.

Take `CC(NCC(F)(F)F)C1COc2c(cn(C)c2C(=O)Nc2ccc(F)c(C#N)c2)S(=O)(=O)N1` (single isomer, unassigned) [Compound 161d, N-(3-cyano-4-fluoro-phenyl)-7-methyl-1,1-dioxo-3-[1-(2,2,2-trifluoroethylamino)ethyl]-3,4-dihydro-2H-pyrrolo[3,4-b][1,4,5]oxathiazepine-6-carboxamide]: the half-maximal effective concentration (EC50) with HBV was found to be 11 nM. For the same molecule, the half-maximal cytotoxic concentration (CC50) in the data set on HepG2 cells was more than 25000 nM.

With `Cc1cc(CC2(C)COc3c(cn(C)c3C(=O)Nc3ccc(F)c(F)c3)S(=O)(=O)N2)no1` (single isomer, unassigned) [Compound 162b, N-(3,4-difluorophenyl)-3,7-dimethyl-3-[(5-methylisoxazol-3-yl)methyl]-1,1-dioxo-2,4-dihydropyrrolo[3,4-b][1,4,5]oxathiazepine-6-carboxamide], in the data set with HBV, the EC50 came to 11 nM. Moreover, the 50% cytotoxic concentration (CC50) in the data set with HepG2 cells is more than 25000 nM.

As to `Cc1cccc(C2(C)COc3c(cn(C)c3C(=O)Nc3ccc(F)c(F)c3)S(=O)(=O)N2)n1` (single isomer, unassigned) [Compound 168b, N-(3,4-difluorophenyl)-3,7-dimethyl-3-(6-methyl-2-pyridyl)-1,1-dioxo-2,4-dihydropyrrolo[3,4-b][1,4,5]oxathiazepine-6-carboxamide], the 50% effective concentration (EC50) in the data set with HBV turned out to be 15 nM. Also, the cytotoxic concentration (CC50) in the data set on HepG2 cells was more than 25000 nM.

With `Cc1cc(CC2(C)COc3c(cn(C)c3C(=O)Nc3cc(F)c(F)c(F)c3)S(=O)(=O)N2)no1` (single isomer, unassigned) [Compound 170b, 3,7-dimethyl-3-[(5-methylisoxazol-3-yl)methyl]-1,1-dioxo-N-(3,4,5-trifluorophenyl)-2,4-dihydropyrrolo[3,4-b][1,4,5]oxathiazepine-6-carboxamide], the concentration giving a half-maximal response (EC50) in the data set with HBV (setting [1]) came to 7 nM. The CC50 in the data set with HepG2 cells was more than 25000 nM.

`Cc1cccc(CC2(C)COc3c(cn(C)c3C(=O)Nc3ccc(F)c(F)c3)S(=O)(=O)N2)n1` (single isomer, unassigned) [Compound 172b, N-(3,4-difluorophenyl)-3,7-dimethyl-3-[(6-methyl-2-pyridyl)methyl]-1,1-dioxo-2,4-dihydropyrrolo[3,4-b][1,4,5]oxathiazepine-6-carboxamide]: in the data set on HBV, the concentration for a half-maximal effect (EC50) amounted to 64 nM. In addition, the CC50 in the data set on HepG2 cells is more than 25000 nM.

Consider `Cc1cc(CC2(C)COc3c(cn(C)c3C(=O)Nc3ccc(F)c(F)c3)S(=O)(=O)N2)n(C)n1` (single isomer, unassigned) [Compound 175b, N-(3,4-difluorophenyl)-3-[(2,5-dimethylpyrazol-3-yl)methyl]-3,7-dimethyl-1,1-dioxo-2,4-dihydropyrrolo[3,4-b][1,4,5]oxathiazepine-6-carboxamide], for which the EC50 with HBV stood at 3 nM. Besides, the half-maximal cytotoxic concentration (CC50) in the data set on HepG2 cells was more than 25000 nM.

As for `Cc1cccc(C2(C)COc3c(cn(C)c3C(=O)Nc3ccc(F)c(C(F)F)c3)S(=O)(=O)N2)n1` (single isomer, unassigned) [Compound 177b, N-[3-(difluoromethyl)-4-fluoro-phenyl]-3,7-dimethyl-3-(6-methyl-2-pyridyl)-1,1-dioxo-2,4-dihydropyrrolo[3,4-b][1,4,5]oxathiazepine-6-carboxamide], in the data set with HBV (setting [1]), the EC50 amounted to 4 nM. For the same molecule, the CC50 in the data set with HepG2 cells is more than 25000 nM.

On to `Cn1ccc(C2(C)COc3c(cn(C)c3C(=O)Nc3ccc(F)c(F)c3)S(=O)(=O)N2)n1` (single isomer, unassigned) [Compound 192b, N-(3,4-difluorophenyl)-3,7-dimethyl-3-(1-methylpyrazol-3-yl)-1,1-dioxo-2,4-dihydropyrrolo[3,4-b][1,4,5]oxathiazepine-6-carboxamide], for which, in the data set with HBV, the EC50 is 24 nM. Also, the CC50 in the data set on HepG2 cells was more than 25000 nM.
